Laboratory results as given in patent publication US8940724B2, “Quinoline derivitives and their uses” (Amgen Inc., priority 2009, dated 2015).

Target: T1, PI3Kδ (Homo sapiens, UniProt O00329)
T1 construct: Full length p110 subunits of PI3k α, β and δ, N-terminally labeled with polyHis tag; polyHis (N); made in house; host or cells: Sf9 insect cells (baculovirus)
Assay: PI3Kδ Alphascreen assay
Format: biochemical

T1 sequence (O00329 whole entry): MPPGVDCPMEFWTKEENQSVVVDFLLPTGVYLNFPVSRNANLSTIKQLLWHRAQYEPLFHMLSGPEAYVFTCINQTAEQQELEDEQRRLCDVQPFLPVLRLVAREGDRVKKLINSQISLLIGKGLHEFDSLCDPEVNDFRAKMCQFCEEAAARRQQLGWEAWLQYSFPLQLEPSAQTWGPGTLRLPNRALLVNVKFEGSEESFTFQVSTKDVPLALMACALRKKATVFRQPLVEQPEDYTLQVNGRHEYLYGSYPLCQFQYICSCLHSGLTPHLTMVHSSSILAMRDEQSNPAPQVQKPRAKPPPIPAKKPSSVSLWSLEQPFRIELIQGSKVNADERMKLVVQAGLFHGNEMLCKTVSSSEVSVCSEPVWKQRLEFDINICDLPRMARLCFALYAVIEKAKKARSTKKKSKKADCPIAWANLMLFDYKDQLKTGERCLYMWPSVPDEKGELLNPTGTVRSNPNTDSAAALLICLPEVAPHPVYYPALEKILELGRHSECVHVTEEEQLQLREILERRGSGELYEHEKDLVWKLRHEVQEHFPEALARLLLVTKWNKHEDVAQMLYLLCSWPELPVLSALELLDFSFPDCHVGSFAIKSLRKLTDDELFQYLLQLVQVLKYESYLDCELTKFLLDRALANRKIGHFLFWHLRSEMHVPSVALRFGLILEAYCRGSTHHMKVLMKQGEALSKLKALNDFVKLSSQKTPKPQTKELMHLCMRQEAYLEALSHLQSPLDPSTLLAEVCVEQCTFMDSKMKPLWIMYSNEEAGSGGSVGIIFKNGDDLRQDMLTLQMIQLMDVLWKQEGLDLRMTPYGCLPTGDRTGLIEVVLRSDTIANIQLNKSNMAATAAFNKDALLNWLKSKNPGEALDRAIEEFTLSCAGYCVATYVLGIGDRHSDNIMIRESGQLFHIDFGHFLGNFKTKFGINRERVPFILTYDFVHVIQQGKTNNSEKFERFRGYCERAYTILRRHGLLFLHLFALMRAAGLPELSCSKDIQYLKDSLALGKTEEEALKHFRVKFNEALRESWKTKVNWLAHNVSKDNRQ
T1 sequence (P27986 whole entry partner): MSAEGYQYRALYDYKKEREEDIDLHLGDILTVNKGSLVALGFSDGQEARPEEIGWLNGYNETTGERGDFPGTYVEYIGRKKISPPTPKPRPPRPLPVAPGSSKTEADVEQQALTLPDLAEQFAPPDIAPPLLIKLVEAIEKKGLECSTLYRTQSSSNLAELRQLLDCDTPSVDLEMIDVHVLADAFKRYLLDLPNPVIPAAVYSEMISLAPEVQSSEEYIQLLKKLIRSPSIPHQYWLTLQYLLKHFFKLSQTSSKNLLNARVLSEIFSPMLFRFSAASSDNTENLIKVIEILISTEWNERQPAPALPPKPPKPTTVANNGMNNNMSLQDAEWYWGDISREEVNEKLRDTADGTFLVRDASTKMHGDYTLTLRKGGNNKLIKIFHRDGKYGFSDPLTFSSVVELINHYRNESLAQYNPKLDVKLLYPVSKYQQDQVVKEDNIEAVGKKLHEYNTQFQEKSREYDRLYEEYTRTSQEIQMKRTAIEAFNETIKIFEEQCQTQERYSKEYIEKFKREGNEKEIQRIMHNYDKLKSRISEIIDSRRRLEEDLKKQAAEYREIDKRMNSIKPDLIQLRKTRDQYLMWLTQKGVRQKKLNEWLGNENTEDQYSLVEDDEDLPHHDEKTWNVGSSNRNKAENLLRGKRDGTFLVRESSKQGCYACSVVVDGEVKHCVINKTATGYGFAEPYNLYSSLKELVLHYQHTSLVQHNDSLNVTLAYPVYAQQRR

Cc1c(N2CCN(C(=O)OC(C)(C)C)CC2)nc2cc(F)cc(F)c2c1Nc1cncc(N2CCOCC2)c1 [tert-butyl 4-(5,7-difluoro-3-methyl-4-((5-(4-morpholinyl)-3-pyridinyl)amino)-2-quinolinyl)-1-piperazinecarboxylate]
Ki: 353 nM

Cc1c(-c2ccccn2)nc2c(Cl)cccc2c1Nc1cncc(N2CCOCC2)c1 [8-chloro-3-methyl-N-(5-(4-morpholinyl)-3-pyridinyl)-2-(2-pyridinyl)-4-quinolinamine]
Ki: 7.45 nM

Cc1c(-c2ccccn2)nc2c(Cl)ccc(F)c2c1Nc1cc(N2CCOCC2)cnc1N1CCOCC1 [8-chloro-N-(2,5-di-4-morpholinyl-3-pyridinyl)-5-fluoro-3-methyl-2-(2-pyridinyl)-4-quinolinamine]
Ki: 2.57 nM

COc1ccc(-c2nc3cc(F)cc(F)c3c(Nc3cc(N4CCOCC4)cnc3N3CCOCC3)c2C)cn1 [N-(2,5-di-4-morpholinyl-3-pyridinyl)-5,7-difluoro-2-(6-methoxy-3-pyridinyl)-3-methyl-4-quinolinamine]
Ki: 33.2 nM

Cc1ccnc(-c2nc3cc(F)cc(F)c3c(Nc3cncc(C4=CCOCC4)c3)c2C)c1 [N-(5-(3,6-dihydro-2H-pyran-4-yl)-3-pyridinyl)-5,7-difluoro-3-methyl-2-(4-methyl-2-pyridinyl)-4-quinolinamine]
Ki: 14.4 nM

Cc1ccnc(-c2nc3cc(F)cc(F)c3c(Nc3cncc(-c4ccnc(N)n4)c3)c2C)c1 [N-(5-(2-amino-4-pyrimidinyl)-3-pyridinyl)-5,7-difluoro-3-methyl-2-(4-methyl-2-pyridinyl)-4-quinolinamine]
Ki: 5.34 nM

Cc1c(-c2ccccn2)nc2c(F)cc(F)cc2c1Nc1cc(N2CCOCC2)cnc1N1CCOCC1 [N-(2,5-di-4-morpholinyl-3-pyridinyl)-6,8-difluoro-3-methyl-2-(2-pyridinyl)-4-quinolinamine]
Ki: 345 nM

Cc1c(-c2ccc(N3CC[C@@H](N(C)C)C3)nc2)nc2cc(F)cc(F)c2c1Nc1cc(N2CCOCC2)cnc1N1CCOCC1 [2-(6-((3R)-3-(dimethylamino)-1-pyrrolidinyl)-3-pyridinyl)-N-(2,5-di-4-morpholinyl-3-pyridinyl)-5,7-difluoro-3-methyl-4-quinolinamine]
Ki: 28.4 nM

Cc1c(N2CCN(C(=O)N(C)C)CC2)nc2cc(F)cc(F)c2c1N(C(=O)N(C)C)c1cncc(N2CCOCC2)c1 [4-(4-((dimethylcarbamoyl)(5-(4-morpholinyl)-3-pyridinyl)-amino)-5,7-difluoro-3-methyl-2-quinolinyl)-N,N-dimethyl-1-piperazinecarboxamide]
Ki: 81.6 nM

Cc1c(-c2ccccn2)nc2cc(F)cc(F)c2c1Nc1cc(N2CCOCC2)cnc1-c1cccc(OC(F)F)c1 [N-(2-(3-(difluoromethoxy)phenyl)-5-(4-morpholinyl)-3-pyridinyl)-5,7-difluoro-3-methyl-2-(2-pyridinyl)-4-quinolinamine]
Ki: 2.26 nM

Cc1c(N2CCN(C)CC2)nc2cc(F)cc(F)c2c1Nc1cncc(N2CCOCC2)c1 [5,7-difluoro-3-methyl-2-(4-methyl-1-piperazinyl)-N-(5-(4-morpholinyl)-3-pyridinyl)-4-quinolinamine]
Ki: 35.2 nM

Cc1ccnc(-c2nc3cc(F)cc(F)c3c(Nc3cc(N4CCOCC4)ccc3S(C)(=O)=O)c2C)c1 [5,7-difluoro-3-methyl-2-(4-methyl-2-pyridinyl)-N-(2-(methylsulfonyl)-5-(4-morpholinyl)phenyl)-4-quinolinamine]
Ki: 0.821 nM

Cc1c(N2CCN(S(=O)(=O)C(C)C)CC2)nc2cc(F)cc(F)c2c1Nc1cncc(N2CCOCC2)c1 [5,7-difluoro-3-methyl-2-(4-((1-methylethyl)sulfonyl)-1-piperazinyl)-N-(5-(4-morpholinyl)-3-pyridinyl)-4-quinolinamine]
Ki: 53.4 nM

Cc1c(N2CCN[C@H](C)C2)nc2cc(F)cc(F)c2c1Nc1cncc(N2CCOCC2)c1 [5,7-difluoro-3-methyl-2-((3R)-3-methyl-1-piperazinyl)-N-(5-(4-morpholinyl)-3-pyridinyl)-4-quinolinamine]
Ki: 44.3 nM

Cc1c(-c2cc(O)ccc2S(C)(=O)=O)nc2cc(F)ccc2c1Nc1cc(N2CCOCC2)cnc1N1CCOCC1 [3-(4-((2,5-di-4-morpholinyl-3-pyridinyl)amino)-7-fluoro-3-methyl-2-quinolinyl)-4-(methylsulfonyl)phenol]
Ki: 17.5 nM

Cc1c(N2CCN(C(=O)OC(C)(C)C)C[C@@H]2C)nc2cc(F)cc(F)c2c1Nc1cncc(N2CCOCC2)c1 [tert-butyl (3S)-4-(5,7-difluoro-3-methyl-4-((5-(4-morpholinyl)-3-pyridinyl)amino)-2-quinolinyl)-3-methyl-1-piperazinecarboxylate]
Ki: 358 nM

Cc1ccnc(-c2nc3c(C#N)cccc3c(Nc3cncc(N4CCOCC4)c3)c2C)c1 [3-methyl-2-(4-methyl-2-pyridinyl)-4-((5-(4-morpholinyl)-3-pyridinyl)amino)-8-quinolinecarbonitrile]
Ki: 57.3 nM

Cc1c(N2CCN(S(C)(=O)=O)CC2)nc2cc(F)cc(F)c2c1Nc1cncc(N2CCOCC2)c1 [5,7-difluoro-3-methyl-2-(4-(methylsulfonyl)-1-piperazinyl)-N-(5-(4-morpholinyl)-3-pyridinyl)-4-quinolinamine]
Ki: 45.5 nM

Cc1c(N2CCN(C(C)C)C(=O)C2)nc2cc(F)cc(F)c2c1Nc1cc(N2CCOCC2)cnc1N1CCOCC1 [4-(4-((2,5-di-4-morpholinyl-3-pyridinyl)amino)-5,7-difluoro-3-methyl-2-quinolinyl)-1-(1-methylethyl)-2-piperazinone]
Ki: 2.38 nM

Cc1c(N2CCNC[C@H]2C)nc2cc(F)cc(F)c2c1Nc1cncc(N2CCOCC2)c1 [5,7-difluoro-3-methyl-2-((2R)-2-methyl-1-piperazinyl)-N-(5-(4-morpholinyl)-3-pyridinyl)-4-quinolinamine]
Ki: 15.9 nM

Cc1c(-c2cc(F)ccc2S(C)(=O)=O)nc2cc(F)cc(F)c2c1Nc1cncc(N2CCOCC2)c1 [5,7-difluoro-2-(5-fluoro-2-(methylsulfonyl)phenyl)-3-methyl-N-(5-(4-morpholinyl)-3-pyridinyl)-4-quinolinamine]
Ki: 2.91 nM

Cc1c(-c2cncc(Cl)c2)nc2cc(F)cc(F)c2c1Nc1cc(N2CCOCC2)cnc1N1CCOCC1 [2-(5-chloro-3-pyridinyl)-N-(2,5-di-4-morpholinyl-3-pyridinyl)-5,7-difluoro-3-methyl-4-quinolinamine]
Ki: 11.2 nM

Cc1c(-c2ccc(N(C)C)nc2)nc2cc(F)cc(F)c2c1Nc1cc(N2CCOCC2)cnc1N1CCOCC1 [2-(6-(dimethylamino)-3-pyridinyl)-N-(2,5-di-4-morpholinyl-3-pyridinyl)-5,7-difluoro-3-methyl-4-quinolinamine]
Ki: 24.4 nM

Cc1c(-c2ccc(N3CCC(C)CC3)nc2)nc2cc(F)cc(F)c2c1Nc1cc(N2CCOCC2)cnc1N1CCOCC1 [N-(2,5-di-4-morpholinyl-3-pyridinyl)-5,7-difluoro-3-methyl-2-(6-(4-methyl-1-piperidinyl)-3-pyridinyl)-4-quinolinamine]
Ki: 134 nM

Cc1ccnc(-c2nc3cc(F)ccc3c(Nc3cc(N4CCOCC4)cnc3N3CCOCC3)c2C)c1 [N-(2,5-di-4-morpholinyl-3-pyridinyl)-7-fluoro-3-methyl-2-(4-methyl-2-pyridinyl)-4-quinolinamine]
Ki: 35.1 nM

COc1ccc(-c2ncc(N3CCOCC3)cc2Nc2c(C)c(-c3ccccn3)nc3cc(F)cc(F)c23)cn1 [N-(5,7-difluoro-3-methyl-2-(2-pyridinyl)-4-quinolinyl)-6′-methoxy-5-(4-morpholinyl)-2,3′-bipyridin-3-amine]
Ki: 1.54 nM

COc1cc(-c2nc3cc(F)cc(F)c3c(Nc3cc(N4CCOCC4)cnc3N3CCOCC3)c2C)ccn1 [N-(2,5-di-4-morpholinyl-3-pyridinyl)-5,7-difluoro-2-(2-methoxy-4-pyridinyl)-3-methyl-4-quinolinamine]
Ki: 33.4 nM

CCCN1CCN(c2nc3cc(F)cc(F)c3c(Nc3cc(N4CCOCC4)cnc3N3CCOCC3)c2C)CC1=O [4-(4-((2,5-di-4-morpholinyl-3-pyridinyl)amino)-5,7-difluoro-3-methyl-2-quinolinyl)-1-propyl-2-piperazinone]
Ki: 1.83 nM

COc1ccc(-c2ncc(N3CCOCC3)cc2Nc2c(C)c(-c3cc(C)ccn3)nc3cc(F)cc(F)c23)cn1 [N-(5,7-difluoro-3-methyl-2-(4-methyl-2-pyridinyl)-4-quinolinyl)-6′-methoxy-5-(4-morpholinyl)-2,3′-bipyridin-3-amine]
Ki: 3.18 nM

Cc1c(N2CCN(C(=O)c3ncccn3)CC2)nc2cc(F)cc(F)c2c1Nc1cncc(N2CCOCC2)c1 [5,7-difluoro-3-methyl-N-(5-(4-morpholinyl)-3-pyridinyl)-2-(4-(2-pyrimidinylcarbonyl)-1-piperazinyl)-4-quinolinamine]
Ki: 645 nM

Cc1c(-c2ccc(N3CCCCC3)nc2)nc2cc(F)cc(F)c2c1Nc1cncc(N2CCOCC2)c1 [5,7-difluoro-3-methyl-N-(5-(4-morpholinyl)-3-pyridinyl)-2-(6-(1-piperidinyl)-3-pyridinyl)-4-quinolinamine]
Ki: 517 nM

Cc1ccc(-c2nc3cc(F)cc(F)c3c(Nc3cncc(N4CCOCC4)c3)c2C)nc1 [5,7-difluoro-3-methyl-2-(5-methyl-2-pyridinyl)-N-(5-(4-morpholinyl)-3-pyridinyl)-4-quinolinamine]
Ki: 19.1 nM

Cc1c(-c2ccc(N3CCC(F)(F)CC3)nc2)nc2cc(F)cc(F)c2c1Nc1cc(N2CCOCC2)cnc1N1CCOCC1 [2-(6-(4,4-difluoro-1-piperidinyl)-3-pyridinyl)-N-(2,5-di-4-morpholinyl-3-pyridinyl)-5,7-difluoro-3-methyl-4-quinolinamine]
Ki: 43.5 nM

Cc1c(-c2ccccn2)nc2cc(F)cc(F)c2c1Nc1cc(N2CCOCC2)cnc1-c1ccc(S(C)(=O)=O)cc1 [5,7-difluoro-3-methyl-N-(2-(4-(methylsulfonyl)phenyl)-5-(4-morpholinyl)-3-pyridinyl)-2-(2-pyridinyl)-4-quinolinamine]
Ki: 2.15 nM

Cc1c(N2CCC[C@H]2C(=O)O)nc2cc(F)cc(F)c2c1Nc1cncc(N2CCOCC2)c1 [1-(5,7-difluoro-3-methyl-4-((5-(4-morpholinyl)-3-pyridinyl)-amino)-2-quinolinyl)-L-proline]
Ki: 9.37 nM
